In the METLIN SMRT retention time set (Domingo-Almenara et al. 2019) one finds RP-LC retention time data, which are given here for 80 molecules.

The data set is described as follows: gradient 5% acetonitrile 3 min, to 50% in 2 min, to 85% in 15 min, held 3 min, 100 µL/min. The following applies: column: Zorbax Extend-C18 2.1 x 50 mm; eluents: water / acetonitrile, 0.1% formic acid. Put shortly: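 Standards, all pure, were combined into mixtures of ~100 molecules and run at 100 μL/min on a Zorbax Extend-C18 column (2.1 × 50 mm, 1.8 μm) with water and acetonitrile, each containing 0.1% formic acid. A coupled quadrupole time-of-flight mass spectrometer operated in positive and negative ionization mode. Retention time values come from computationally picked adduct peaks, each inspected manually.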
`COc1ccc(-c2nnc(COc3cccc(NC(=O)c4nn(C)c5ccccc45)c3)o2)cc1` displayed an RP-LC retention time of 1040 s.

For the molecule `CCN(CCNC(=O)C12CCCC=C1N(Cc1ccccc1)C(=O)CC2)Cc1ccccc1` (stereo not given), the RP-LC retention time was found to be 603 s.

`Fc1cc(F)cc(-c2nnc(Cc3nc(-c4ccccc4F)no3)o2)c1` showed an RP-LC retention time of 1060 s.

Regarding `Cc1cccc2c1NC(=O)C2(O)CC(=O)c1ccc(C(C)C)cc1` (stereo not given), the RP-LC retention time came to 860 s.

The molecule `CCC(=O)N1CCc2cc(N3CC(C(=O)NCc4cccs4)CC3=O)ccc21` (stereo not given) displayed an RP-LC retention time of 695 s.

Consider `Cc1cc(C)cc(NC(=O)C2CCCN(c3cc(=O)n(C)c(=O)n3C)C2)c1` (stereo not given), for which the RP-LC retention time came to 783 s.

Consider `COc1ccc(-c2noc(Cc3nnc(-c4ccc(C)c(F)c4)o3)n2)cc1OC`, for which the RP-LC retention time was 996 s.

Molecule `COCCN(C)Cc1ccc(CC2CCN(C(=O)C3(c4ccc(OC)cc4)CC3)CC2)cc1` came in with an RP-LC retention time of 691 s.

`O=C(CSc1ccc(N2CCCC(C(=O)NC3CC3)C2)nn1)Nc1ccc(F)c(Cl)c1` (stereo not given): the RP-LC retention time was 660 s.

As to `COCCCNC(=O)c1ccc2c(c1)N(Cc1ccc(F)cc1)C(=O)CO2`, the RP-LC retention time came out at 711 s.

`Cc1ccccc1C(=O)N1CCC2(C1)C(=O)Nc1ccccc12` (stereo not given) yielded an RP-LC retention time of 703 s.

As for `CCCCC(=O)N(CCC)CCC`, the RP-LC retention time is 965 s.

In turn, `CCc1ccc(CNC(=O)C2CCCN(C(=O)c3[nH]c(C)c(C(=O)OC)c3C)C2)cc1` (stereo not given) came in with an RP-LC retention time of 845 s.

`CCC(=O)N1CCc2ccccc2C1C(=O)N1CCN(c2ccccc2)CC1` (stereo not given) gave an RP-LC retention time of 852 s.

For the molecule `CCc1ccc(C2=C(C)C(N3CCCN(C(=O)c4ccco4)CC3)=NS2(=O)=O)cc1`, the RP-LC retention time was 838 s.

The molecule `COc1cccc(-c2nc(C3CCN(S(=O)(=O)c4cc(C)ccc4C)CC3)no2)c1` had an RP-LC retention time of 1210 s.

`CCC(=O)Nc1ccc(-n2cnc(C(=O)N3CCC4(CC3)OCCO4)c2)nc1` had an RP-LC retention time of 616 s.

With `O=C(Cc1ccc(Cl)cc1)NC1CCN(c2ccc(F)cc2)C1=O` (stereo not given), the RP-LC retention time was determined as 853 s.

As to `CCOc1ccccc1OCc1nn2c(-c3ccccn3)nnc2s1`, the RP-LC retention time was found to be 800 s.

As to `CCc1ccc(-c2noc(CN3C(=O)COc4ccc(S(=O)(=O)CC)cc43)n2)cc1`, the RP-LC retention time is 1000 s.

In turn, `CCOC(=O)c1ccc(Nc2c(C(=O)N3CCCCC3C)cnc3nc(C)ccc23)cc1` (stereo not given) gave an RP-LC retention time of 653 s.

In turn, `CCOC(=O)c1cnn(-c2ccc(C(=O)NCc3ccco3)cn2)c1C` displayed an RP-LC retention time of 804 s.

The molecule `CC(C)NC(=O)Nc1cc2c(cc1N1CCOCC1)n(C)c(=O)n2C` came in with an RP-LC retention time of 634 s.

Molecule `CCCCC(=O)Nc1ccc2nc(N3CCN(CCC#N)CC3)cc(C(=O)O)c2c1` displayed an RP-LC retention time of 570 s.

`CC(C)N1CCN(C(=O)c2cn(-c3ccc(-c4nc(C(C)(C)C)no4)cn3)cn2)CC1` yielded an RP-LC retention time of 671 s.

The molecule `CCc1c(C)nc2ncnn2c1N1CCCC1` returned an RP-LC retention time of 733 s.

`CC(C)N1C(=O)c2cccnc2Sc2cc(NC(=O)c3ccc(Cl)s3)ccc21` returned an RP-LC retention time of 975 s.

`CCOC(=O)c1c(C)[nH]c(C)c1S(=O)(=O)N1CCC(C(=O)Nc2ccc(C)cn2)CC1` registered an RP-LC retention time of 646 s.

`CCc1ccc(CNC(=O)C2Cc3cc(S(=O)(=O)N(CC)CC)ccc3N2C(C)=O)cc1` (stereo not given) showed an RP-LC retention time of 617 s.

With `O=C(CCCn1c(=O)c2cccn2c2ccc(Br)cc21)NCc1ccco1`, the RP-LC retention time stood at 864 s.

`CCc1cc(=O)n(CC(=O)Nc2cc(OC)ccc2OC)c(N2CCOCC2)n1` came in with an RP-LC retention time of 967 s.

Molecule `O=C(NCC1CCCO1)c1ccccc1OCc1nc(-c2ccccc2)no1` (stereo not given) returned an RP-LC retention time of 898 s.

In the case of `CN(CC1CCOCC1)C(=O)Nc1cccc(Cl)c1`, the RP-LC retention time amounted to 750 s.

With `Cc1ccc(Nc2cc(N3CCN(C(=O)COc4ncccn4)CC3)nc(C)n2)cc1`, the RP-LC retention time was determined as 563 s.

`Fc1ccc(F)c(CNc2nnc(-c3nc(C4CC4)no3)c3ccccc23)c1` came in with an RP-LC retention time of 672 s.

Molecule `O=C(Nc1cccnc1)c1ccccc1OCc1ccc(S(=O)(=O)N2CCOCC2)o1` gave an RP-LC retention time of 594 s.

Regarding `Cn1cnc(S(=O)(=O)N2CCC(C(=O)NCCc3ccccc3)CC2)c1`, the RP-LC retention time came out at 663 s.

`Cc1noc(C)c1CCC(=O)N1CCN(c2ncnc3c2CCC3)CC1` gave an RP-LC retention time of 576 s.

Consider `CCOc1ccc(-c2cc3c(=O)n(Cc4nc(-c5ccccc5)no4)ncn3n2)cc1`, for which the RP-LC retention time was 720 s.

Regarding `CCOc1cccc(-c2noc(Cn3cnc4c(oc5ccccc54)c3=O)n2)c1`, the RP-LC retention time amounted to 1010 s.

With `CC(NC(=O)C1CCN(c2cnn(Cc3ccccc3)c(=O)c2)CC1)c1cccs1` (stereo not given), the RP-LC retention time was 789 s.

As for `O=C(Nc1nnc(SCc2ccccc2F)s1)c1ccccc1C(F)(F)F`, the RP-LC retention time came out at 944 s.

The molecule `O=C(Nc1cccnc1N1CCOCC1)C1CCC1` registered an RP-LC retention time of 623 s.

The molecule `COc1ccccc1N1CCN(S(=O)(=O)c2cc(-c3nc(C(C)C)cs3)cs2)CC1` gave an RP-LC retention time of 1300 s.

As for `CCN(Cc1ccccc1)C(=O)CN1C(=O)CCCc2cc(S(=O)(=O)N3CCOCC3)ccc21`, the RP-LC retention time came out at 825 s.

For the molecule `Cc1nc(OCC(=O)NCc2ccc(F)cc2)c2ccccc2n1`, the RP-LC retention time stood at 705 s.

In turn, `CC(C)c1ccc(N2C=C(C#N)S(=O)(=O)c3ccccc32)cc1` came in with an RP-LC retention time of 1040 s.

Consider `CCN1CCn2cc(S(=O)(=O)N3CCN(c4cccc(C)c4)CC3)cc2C1=O`, for which the RP-LC retention time was determined as 858 s.

Take `CCSc1ccccc1C(=O)NC(C)Cc1ccco1` (stereo not given): the RP-LC retention time was found to be 841 s.

As for `CN1CCN(C(CNC(=O)Cc2ccc(Cl)cc2)c2ccc3c(c2)OCO3)CC1` (stereo not given), the RP-LC retention time was found to be 587 s.

Consider `Cc1ccc(CNC(=O)C2CCN(Cc3cc4ccccc4n3Cc3ccccc3C)CC2)o1`, for which the RP-LC retention time is 800 s.

Molecule `CCCn1cc(-c2ccncc2)cc1C(=O)NCc1cc(F)cc(F)c1` yielded an RP-LC retention time of 711 s.

`Cc1ccc(C(=O)NC(C)C(=O)Nc2nc3ccccc3[nH]2)cc1` (stereo not given) showed an RP-LC retention time of 648 s.

For `O=C(NCCS(=O)(=O)N1CCc2ccccc2C1)c1ccc([N+](=O)[O-])o1`, the RP-LC retention time was found to be 752 s.

The molecule `O=C(Cn1cnc2nc3c(cc2c1=O)CCCC3)NC1CCCCCC1` showed an RP-LC retention time of 662 s.

In turn, `O=C(Nc1ccc2nncn2c1)Nc1ccc(F)cc1F` showed an RP-LC retention time of 680 s.

In turn, `CCC(NC(=O)c1ccc2c(c1)nc1n2CCN(C2CCCCC2)C1=O)c1cccs1` (stereo not given) yielded an RP-LC retention time of 851 s.

For `CCOC(=O)c1noc2nc(C)nc(NCCc3ccc(C)cc3)c12`, the RP-LC retention time stood at 1130 s.

With `CCCNc1cc(N2CCCC(CCC(=O)NCc3ccccn3)C2)ncn1` (stereo not given), the RP-LC retention time was 550 s.

The molecule `Cc1ccc(-n2ncc3c(=O)n(Cc4nc(-c5cccc(Br)c5)no4)cnc32)cc1` showed an RP-LC retention time of 1180 s.

Regarding `COc1ccc(C2C(C(=O)C3CC3)=C(O)C(=O)N2CCCOC(C)C)cc1OC` (stereo not given), the RP-LC retention time came out at 736 s.

As to `CCOc1ccccc1NC(=O)c1sc(N2CCCC2=O)nc1CC`, the RP-LC retention time stood at 1020 s.

For `Cn1nccc1-c1cccc(-c2noc(-c3ccc(Br)cc3)n2)c1`, the RP-LC retention time came to 1280 s.

`Cc1ccsc1C(=O)Nc1ccc(Cn2cncn2)cc1` came in with an RP-LC retention time of 695 s.

`COc1cccc(CNC(=O)CN2C(=O)NC3(CCC(C(C)(C)C)CC3)C2=O)c1OC` (stereo not given) gave an RP-LC retention time of 943 s.

In turn, `COc1ccc(C(=O)N2CCC3(C2)C(=O)Nc2ccccc23)cc1OC` (stereo not given) had an RP-LC retention time of 657 s.

`COc1ccc(NC(=O)c2cn3c(n2)CCCC3)cc1`: the RP-LC retention time worked out at 574 s.

For `COC(=O)c1ccc2c(=O)n(-c3cc(OC)cc(OC)c3)c(N3CCCCCC3)nc2c1`, the RP-LC retention time was determined as 1220 s.

`Cc1ccc(CNC(=O)C2(C)Cn3cnc(C(=O)N4CCCCC4)c3C(=O)N2C2CC2)cc1` (stereo not given): the RP-LC retention time was 784 s.

`CCCC1=C(C(=O)OCC)C(c2ccccc2OC)NC(=O)N1` (stereo not given) yielded an RP-LC retention time of 797 s.

Consider `O=C(Nc1ccc(C2(C(=O)NCc3ccc(F)c(Cl)c3)CCC2)cc1)C1CC1`, for which the RP-LC retention time stood at 903 s.

Regarding `CCOC(=O)c1ccc(NS(=O)(=O)c2cc(-c3c(CC)noc3NC(C)=O)ccc2OC)cc1`, the RP-LC retention time came to 805 s.

Molecule `CCNC(=O)N1CCC(c2noc(-c3ccncc3)n2)C1` (stereo not given) had an RP-LC retention time of 616 s.

`Cc1cccc(-c2noc(C3CCCN3C(=O)Nc3ccccc3Cl)n2)c1` (stereo not given) had an RP-LC retention time of 606 s.

`COc1ccc(-c2nnc(-c3cccc([N+](=O)[O-])c3)o2)cc1` registered an RP-LC retention time of 898 s.

The molecule `CCN1c2cc(C)ccc2-n2cccc2C12CCN(C(=O)NCC(=O)OC)CC2` registered an RP-LC retention time of 895 s.

With `COc1cccc(CNS(=O)(=O)c2ccc3c(c2)C(=O)N(C)c2ncccc2O3)c1`, the RP-LC retention time was 933 s.

In turn, `CSc1cccc(NC(=O)Cn2ccn3nc(-c4ccc(F)cc4)c(CO)c3c2=O)c1` showed an RP-LC retention time of 877 s.

As for `CC(C)NC(=O)CN1CCN(Cc2nc(-c3ccc(N4CCCC4)nc3)no2)CC1`, the RP-LC retention time stood at 541 s.

In turn, `O=C(CCn1nnc2cc(-c3noc(-c4ccc(Cl)cc4)n3)ccc21)N1CCOCC1` came in with an RP-LC retention time of 936 s.
